According to patent US6890736B1, “Methods for producing proteins in cultured cells” (Immunex Corporation, priority 2002, dated 2005):

Experiments:
[1] = system: cell line 25H9 (CHO cells); assay: Example 2: cell number and viability; assay type: cell-based, Chinese hamster
Procedure: (§1) About 2×10^6 cells of cell line 25H9 were inoculated into 30 milliliters of serum-free medium and incubated at the temperatures indicated in Table 1 in vented shake flasks. At the times indicated in Table 1, samples were taken from each flask to determine IL-1R-II titer, cell number, and cell viability. IL-1R-II protein titer was determined by ELISA assay. Cell number was determined by counting cells in a hemocytometer. Cell viability was determined by trypan blue staining and counting stained cells in a hemocytometer. Cumulative viable cell density (CVCD) is the area under the curve of a plot of the viable cell density versus time (in units of cells/ml/day). Productivity (pg of IL-1R-II/cell/day) was determined by dividing the protein titer on a particular day by the CVCD on the same day. Cells were fed with amino acids on days 2 and 5, and dextrose was added periodically in order to maintain levels above 2.0 g/L. All samples were done in duplicate, and the data shown is an average value.
(§2) To determine an optimum temperature and decitabine concentration, three temperatures (30° C., 31° C., and 32° C.) and three decitabine concentrations (10 μM, 15 μM, and 20 μM) were tested. A 31° C. culture containing 0.5 mM sodium butyrate was grown as a control. […] See e.g. International Application Nos. WO 89/06686 and WO 87/05626. The experiment was performed as in Example 1 except that the inducer concentrations, temperatures, and days at which data was collected are as indicated in Table 2 and FIG. 1.

[2] = Example 2: cell number and viability; assay type: cell-based, Chinese hamster; conditions: Chinese hamster; for viability at 6 day, 10 μM / viability at 8 day, 10 μM / viability at 0 day, 10 μM / viability at 3 day, 10 μM: 10 μM decitabine; for viability at 6 day, 10 μM / viability at 6 day, 15 μM / viability at 6 day, 20 μM: day 6; for viability at 8 day, 10 μM / viability at 8 day, 15 μM / viability at 8 day, 20 μM: day 8; for viability at 0 day, 15 μM / viability at 3 day, 15 μM / viability at 6 day, 15 μM / viability at 8 day, 15 μM: 15 μM decitabine; for viability at 0 day, 15 μM / viability at 0 day, 20 μM / viability at 0 day, 10 μM: day 0; for viability at 3 day, 15 μM / viability at 3 day, 20 μM / viability at 3 day, 10 μM: day 3; for viability at 0 day, 20 μM / viability at 3 day, 20 μM / viability at 6 day, 20 μM / viability at 8 day, 20 μM: 20 μM decitabine
Procedure: as §1, §2

[3] = 30° C., 10 μM decitabine, day 0
[4] = 30° C., 10 μM decitabine, day 3
[5] = 30° C., 10 μM decitabine, day 6
[6] = 30° C., 10 μM decitabine, day 8
[7] = 30° C., 15 μM decitabine, day 0
[8] = 30° C., 15 μM decitabine, day 3
[9] = 30° C., 15 μM decitabine, day 6
[10] = 30° C., 15 μM decitabine, day 8
[11] = 30° C., 20 μM decitabine, day 0
[12] = 30° C., 20 μM decitabine, day 3
[13] = 30° C., 20 μM decitabine, day 6
[14] = 30° C., 20 μM decitabine, day 8
[15] = 31° C., 10 μM decitabine, day 0
[16] = 31° C., 10 μM decitabine, day 3
[17] = 31° C., 10 μM decitabine, day 6
[18] = 31° C., 10 μM decitabine, day 8
[19] = 31° C., 15 μM decitabine, day 0
[20] = 31° C., 15 μM decitabine, day 3
[21] = 31° C., 15 μM decitabine, day 6
[22] = 31° C., 15 μM decitabine, day 8
[23] = 31° C., 20 μM decitabine, day 0
[24] = 31° C., 20 μM decitabine, day 3
[25] = 31° C., 20 μM decitabine, day 6
[26] = 31° C., 20 μM decitabine, day 8
[27] = 32° C., 10 μM decitabine, day 0
[28] = 32° C., 10 μM decitabine, day 3
[29] = 32° C., 10 μM decitabine, day 6
[30] = 32° C., 10 μM decitabine, day 8
[31] = 32° C., 15 μM decitabine, day 0
[32] = 32° C., 15 μM decitabine, day 3
[33] = 32° C., 15 μM decitabine, day 6
[34] = 32° C., 15 μM decitabine, day 8
[35] = 32° C., 20 μM decitabine, day 0
[36] = 32° C., 20 μM decitabine, day 3
[37] = 32° C., 20 μM decitabine, day 6
[38] = 32° C., 20 μM decitabine, day 8
[39] = CHO cell line 25H9 producing IL-1R-II, 30° C.
[40] = cell line 25H9 (CHO cells), 30° C.
[41] = cell line 25H9 (CHO cells), 31° C.
[42] = cell line 25H9 (CHO cells), 32° C.

Nc1ncn([C@H]2C[C@H](O)[C@@H](CO)O2)c(=O)n1 [decitabine, 5-aza-2′-deoxycytidine]
Cumulative Viable Cell Density [1, 3]: 0 mL⁻¹ day⁻¹ | Viable Cell Density [1, 3]: 2e+06 mL⁻¹ | Cumulative Viable Cell Density [1, 4]: 7.4e+06 mL⁻¹ day⁻¹ | Viable Cell Density [1, 4]: 3e+06 mL⁻¹ | Cumulative Viable Cell Density [1, 5]: 1.43e+07 mL⁻¹ day⁻¹ | Viable Cell Density [1, 5]: 1.7e+06 mL⁻¹ | Cumulative Viable Cell Density [1, 6]: 1.81e+07 mL⁻¹ day⁻¹ | Viable Cell Density [1, 6]: 2.1e+06 mL⁻¹ | Cumulative Viable Cell Density [1, 7]: 0 mL⁻¹ day⁻¹ | Viable Cell Density [1, 7]: 2e+06 mL⁻¹ | Cumulative Viable Cell Density [1, 8]: 6.8e+06 mL⁻¹ day⁻¹ | Viable Cell Density [1, 8]: 2.6e+06 mL⁻¹ | Cumulative Viable Cell Density [1, 9]: 1.4e+07 mL⁻¹ day⁻¹ | Viable Cell Density [1, 9]: 2.2e+06 mL⁻¹ | Cumulative Viable Cell Density [1, 10]: 1.81e+07 mL⁻¹ day⁻¹ | Viable Cell Density [1, 10]: 1.9e+06 mL⁻¹ | Cumulative Viable Cell Density [1, 11]: 0 mL⁻¹ day⁻¹ | Viable Cell Density [1, 11]: 2e+06 mL⁻¹ | Cumulative Viable Cell Density [1, 12]: 7.9e+06 mL⁻¹ day⁻¹ | Viable Cell Density [1, 12]: 3.3e+06 mL⁻¹ | Cumulative Viable Cell Density [1, 13]: 1.63e+07 mL⁻¹ day⁻¹ | Viable Cell Density [1, 13]: 2.3e+06 mL⁻¹ | Cumulative Viable Cell Density [1, 14]: 2.04e+07 mL⁻¹ day⁻¹ | Viable Cell Density [1, 14]: 1.8e+06 mL⁻¹ | Cumulative Viable Cell Density [1, 15]: 0 mL⁻¹ day⁻¹ | Viable Cell Density [1, 15]: 2e+06 mL⁻¹ | Cumulative Viable Cell Density [1, 16]: 8.7e+06 mL⁻¹ day⁻¹ | Viable Cell Density [1, 16]: 3.9e+06 mL⁻¹ | Cumulative Viable Cell Density [1, 17]: 2.1e+07 mL⁻¹ day⁻¹ | Viable Cell Density [1, 17]: 4.3e+06 mL⁻¹ | Cumulative Viable Cell Density [1, 18]: 2.85e+07 mL⁻¹ day⁻¹ | Viable Cell Density [1, 18]: 3.2e+06 mL⁻¹ | Cumulative Viable Cell Density [1, 19]: 0 mL⁻¹ day⁻¹ | Viable Cell Density [1, 19]: 2e+06 mL⁻¹ | Cumulative Viable Cell Density [1, 20]: 7.9e+06 mL⁻¹ day⁻¹ | Viable Cell Density [1, 20]: 3.3e+06 mL⁻¹ | Cumulative Viable Cell Density [1, 21]: 1.92e+07 mL⁻¹ day⁻¹ | Viable Cell Density [1, 21]: 4.2e+06 mL⁻¹ | Cumulative Viable Cell Density [1, 22]: 2.58e+07 mL⁻¹ day⁻¹ | Viable Cell Density [1, 22]: 2.4e+06 mL⁻¹ | Cumulative Viable Cell Density [1, 23]: 0 mL⁻¹ day⁻¹ | Viable Cell Density [1, 23]: 2e+06 mL⁻¹ | Cumulative Viable Cell Density [1, 24]: 9.2e+06 mL⁻¹ day⁻¹ | Viable Cell Density [1, 24]: 4.2e+06 mL⁻¹ | Cumulative Viable Cell Density [1, 25]: 2.17e+07 mL⁻¹ day⁻¹ | Viable Cell Density [1, 25]: 4.2e+06 mL⁻¹ | Cumulative Viable Cell Density [1, 26]: 2.86e+07 mL⁻¹ day⁻¹ | Viable Cell Density [1, 26]: 2.7e+06 mL⁻¹ | Cumulative Viable Cell Density [1, 27]: 0 mL⁻¹ day⁻¹ | Viable Cell Density [1, 27]: 2e+06 mL⁻¹ | Cumulative Viable Cell Density [1, 28]: 8e+06 mL⁻¹ day⁻¹ | Viable Cell Density [1, 28]: 3.4e+06 mL⁻¹ | Cumulative Viable Cell Density [1, 29]: 1.9e+07 mL⁻¹ day⁻¹ | Viable Cell Density [1, 29]: 3.9e+06 mL⁻¹ | Cumulative Viable Cell Density [1, 30]: 2.49e+07 mL⁻¹ day⁻¹ | Viable Cell Density [1, 30]: 2.1e+06 mL⁻¹ | Cumulative Viable Cell Density [1, 31]: 0 mL⁻¹ day⁻¹ | Viable Cell Density [1, 31]: 2e+06 mL⁻¹ | Cumulative Viable Cell Density [1, 32]: 8e+06 mL⁻¹ day⁻¹ | Viable Cell Density [1, 32]: 3.4e+06 mL⁻¹ | Cumulative Viable Cell Density [1, 33]: 1.82e+07 mL⁻¹ day⁻¹ | Viable Cell Density [1, 33]: 3.4e+06 mL⁻¹ | Cumulative Viable Cell Density [1, 34]: 2.41e+07 mL⁻¹ day⁻¹ | Viable Cell Density [1, 34]: 2.5e+06 mL⁻¹ | Cumulative Viable Cell Density [1, 35]: 0 mL⁻¹ day⁻¹ | Viable Cell Density [1, 35]: 2e+06 mL⁻¹ | Cumulative Viable Cell Density [1, 36]: 8.3e+06 mL⁻¹ day⁻¹ | Viable Cell Density [1, 36]: 3.6e+06 mL⁻¹ | Cumulative Viable Cell Density [1, 37]: 1.87e+07 mL⁻¹ day⁻¹ | Viable Cell Density [1, 37]: 3.3e+06 mL⁻¹ | Cumulative Viable Cell Density [1, 38]: 2.36e+07 mL⁻¹ day⁻¹ | Viable Cell Density [1, 38]: 1.6e+06 mL⁻¹ | viability at 6 day, 10 μM [2, 39]: 70.3% | viability at 8 day, 10 μM [2, 39]: 49% | viability at 0 day, 15 μM [2, 39]: 94.2% | viability at 3 day, 15 μM [2, 39]: 88.9% | viability at 6 day, 15 μM [2, 39]: 85.9% | viability at 8 day, 15 μM [2, 39]: 33.2% | viability at 0 day, 20 μM [2, 39]: 94.2% | viability at 3 day, 20 μM [2, 39]: 93.3% | viability at 6 day, 20 μM [2, 39]: 77% | viability at 8 day, 20 μM [2, 39]: 48.4% | viability at 0 day, 10 μM ([2]; CHO cell line 25H9 producing IL-1R-II, 31° C.): 94.2% | viability at 0 day, 10 μM [2, 40]: 94.2% | viability at 3 day, 10 μM [2, 40]: 91.8% | viability at 3 day, 10 μM [2, 41]: 89.3% | viability at 6 day, 10 μM [2, 41]: 79.6% | viability at 8 day, 10 μM [2, 41]: 63.5% | viability at 0 day, 15 μM [2, 41]: 94.2% | viability at 3 day, 15 μM [2, 41]: 97.6% | viability at 6 day, 15 μM [2, 41]: 78.9% | viability at 8 day, 15 μM [2, 41]: 57.6% | viability at 0 day, 20 μM [2, 41]: 94.2% | viability at 3 day, 20 μM [2, 41]: 87.7% | viability at 6 day, 20 μM [2, 41]: 77.9% | viability at 8 day, 20 μM [2, 41]: 57.2% | viability at 0 day, 10 μM [2, 42]: 94.2% | viability at 3 day, 10 μM [2, 42]: 85.4% | viability at 6 day, 10 μM [2, 42]: 71.7% | viability at 8 day, 10 μM [2, 42]: 42.3% | viability at 0 day, 15 μM [2, 42]: 94.2% | viability at 3 day, 15 μM [2, 42]: 87.6% | viability at 6 day, 15 μM [2, 42]: 65.4% | viability at 8 day, 15 μM [2, 42]: 36.1% | viability at 0 day, 20 μM [2, 42]: 94.2% | viability at 3 day, 20 μM [2, 42]: 89.1% | viability at 6 day, 20 μM [2, 42]: 64.7% | viability at 8 day, 20 μM [2, 42]: 41.1%
